Test results published in the NIST ThermoML archive (doi:10.1016/j.jct.2006.01.009).
± gives the expanded uncertainty stated by the source.

Columns and labels:
[1] = 308.15 K, 101 kPa, Liquid; for speed of sound: Linear variable-path acoustic interferometer
[2] = xn = mol fraction of the nth substance listed; details: 308.15 K, 101 kPa, Liquid; for speed of sound: Linear variable-path acoustic interferometer

With CC(=O)c1ccc(Cl)cc1 [4'-chloroacetophenone] the mass density [1] was 1181.3 ± 11 kg/m3 and the speed of sound [1] was 1390 ± 8.5 m/s.

CC(=O)c1ccc(Cl)cc1 [4'-chloroacetophenone] + CC#N gave a speed of sound ([2]; x1 = 0.092) of 1256 ± 7.7 m/s, a speed of sound ([2]; x1 = 0.1488) of 1266 ± 7.7 m/s and a speed of sound ([2]; x1 = 0.2128) of 1278 ± 7.8 m/s. The speed of sound ([2]; x1 = 0.2863) was 1292 ± 7.9 m/s, the speed of sound ([2]; x1 = 0.3792) was 1310 ± 8 m/s and the speed of sound ([2]; x1 = 0.4876) was 1330 ± 8.1 m/s. For the same molecule, the speed of sound ([2]; x1 = 0.6196) was 1350 ± 8.3 m/s, the speed of sound ([2]; x1 = 0.7847) was 1372 ± 8.4 m/s and the speed of sound ([2]; x1 = 1) was 1390 ± 8.5 m/s. The mass density ([2]; x1 = 0.092) was 857.2 ± 7.2 kg/m3, the mass density ([2]; x1 = 0.1488) was 900.3 ± 7.7 kg/m3 and the mass density ([2]; x1 = 0.2128) was 941.5 ± 8.1 kg/m3. It also gave a mass density ([2]; x1 = 0.2863) of 982.6 ± 8.5 kg/m3, a mass density ([2]; x1 = 0.3792) of 1025.8 ± 9 kg/m3 and a mass density ([2]; x1 = 0.4876) of 1077.5 ± 9.5 kg/m3. It also gave a mass density ([2]; x1 = 0.6196) of 1106.9 ± 9.8 kg/m3, a mass density ([2]; x1 = 0.7847) of 1145 ± 10 kg/m3 and a mass density ([2]; x1 = 1) of 1181.3 ± 11 kg/m3.

With CC(=O)c1ccc(C)cc1 [4'-methylacetophenone] the mass density [1] was 996.3 ± 2.5 kg/m3 and the speed of sound [1] was 1438 ± 8.8 m/s.

CC(=O)c1ccc(C)cc1 [4'-methylacetophenone] + CC#N showed a speed of sound ([2]; x1 = 0.0872) of 1272 ± 7.8 m/s, a speed of sound ([2]; x1 = 0.1449) of 1288 ± 7.9 m/s and a speed of sound ([2]; x1 = 0.2088) of 1305 ± 8 m/s. For the same molecule, the speed of sound ([2]; x1 = 0.2823) was 1323 ± 8.1 m/s, the speed of sound ([2]; x1 = 0.3756) was 1344 ± 8.2 m/s and the speed of sound ([2]; x1 = 0.4771) was 1365 ± 8.3 m/s. It also gave a speed of sound ([2]; x1 = 0.6125) of 1389 ± 8.5 m/s, a speed of sound ([2]; x1 = 0.7811) of 1413 ± 8.6 m/s and a speed of sound ([2]; x1 = 1) of 1438 ± 8.8 m/s. For the same molecule, the mass density ([2]; x1 = 0.0872) was 816 ± 1.9 kg/m3, the mass density ([2]; x1 = 0.1449) was 841.6 ± 1.9 kg/m3 and the mass density ([2]; x1 = 0.2088) was 865.3 ± 2 kg/m3. For the same molecule, the mass density ([2]; x1 = 0.2823) was 888.1 ± 2.1 kg/m3, the mass density ([2]; x1 = 0.3756) was 912.4 ± 2.1 kg/m3 and the mass density ([2]; x1 = 0.4771) was 934 ± 2.2 kg/m3. For the same molecule, the mass density ([2]; x1 = 0.6125) was 955.6 ± 2.3 kg/m3, the mass density ([2]; x1 = 0.7811) was 976.1 ± 2.4 kg/m3 and the mass density ([2]; x1 = 1) was 996.3 ± 2.5 kg/m3.

Work on CC#N [acetonitrile] yielded a mass density [1] of 770.6 ± 1.7 kg/m3 and a speed of sound [1] of 1239 ± 7.6 m/s.

CC#N [acetonitrile] + CC(=O)c1ccc(C)cc1 gave a speed of sound ([2]; x2 = 0) of 1239 ± 7.6 m/s and a mass density ([2]; x2 = 0) of 770.6 ± 1.7 kg/m3.

Work on CC#N [acetonitrile] + CC(=O)c1ccc(Cl)cc1 yielded a speed of sound ([2]; x2 = 0) of 1239 ± 7.6 m/s and a mass density ([2]; x2 = 0) of 770.6 ± 6.4 kg/m3.

For CC#N [acetonitrile] + CC(=O)c1ccccc1, the speed of sound ([2]; x2 = 0) was 1239 ± 7.6 m/s and the mass density ([2]; x2 = 0) was 770.6 ± 1.7 kg/m3.

Molecule CC#N [acetonitrile] + CCC(=O)c1ccccc1 has a speed of sound ([2]; x2 = 0) of 1239 ± 7.6 m/s and a mass density ([2]; x2 = 0) of 770.6 ± 1.7 kg/m3.

Molecule CC(=O)c1ccccc1 [acetophenone] has a mass density [1] of 1020 ± 2.5 kg/m3 and a speed of sound [1] of 1445 ± 8.8 m/s.

For CC(=O)c1ccccc1 [acetophenone] + CC#N, the speed of sound ([2]; x1 = 0.048) was 1254 ± 7.7 m/s, the speed of sound ([2]; x1 = 0.1023) was 1268 ± 7.7 m/s and the speed of sound ([2]; x1 = 0.1626) was 1284 ± 7.8 m/s. It also gave a speed of sound ([2]; x1 = 0.2321) of 1303 ± 8 m/s, a speed of sound ([2]; x1 = 0.3113) of 1327 ± 8.1 m/s and a speed of sound ([2]; x1 = 0.4024) of 1351 ± 8.3 m/s. It also gave a speed of sound ([2]; x1 = 0.5125) of 1374 ± 8.4 m/s, a speed of sound ([2]; x1 = 0.6426) of 1395 ± 8.5 m/s and a speed of sound ([2]; x1 = 0.8018) of 1417 ± 8.7 m/s. It also gave a speed of sound ([2]; x1 = 1) of 1445 ± 8.8 m/s, a mass density ([2]; x1 = 0.048) of 796.8 ± 1.8 kg/m3 and a mass density ([2]; x1 = 0.1023) of 823.3 ± 1.9 kg/m3. It also gave a mass density ([2]; x1 = 0.1626) of 849.3 ± 2 kg/m3, a mass density ([2]; x1 = 0.2321) of 874.7 ± 2 kg/m3 and a mass density ([2]; x1 = 0.3113) of 900 ± 2.1 kg/m3. The mass density ([2]; x1 = 0.4024) was 924.7 ± 2.2 kg/m3, the mass density ([2]; x1 = 0.5125) was 949.3 ± 2.3 kg/m3 and the mass density ([2]; x1 = 0.6426) was 972.2 ± 2.3 kg/m3. It also gave a mass density ([2]; x1 = 0.8018) of 995.6 ± 2.4 kg/m3 and a mass density ([2]; x1 = 1) of 1020 ± 2.5 kg/m3.

In the case of CCC(=O)c1ccccc1 [ethyl phenyl ketone], the mass density [1] is reported as 1000.6 ± 2.5 kg/m3 and the speed of sound [1] is reported as 1432 ± 8.8 m/s.

In the case of CCC(=O)c1ccccc1 [ethyl phenyl ketone] + CC#N, the speed of sound ([2]; x1 = 0.0418) is reported as 1250 ± 7.6 m/s, the speed of sound ([2]; x1 = 0.0922) is reported as 1264 ± 7.7 m/s and the speed of sound ([2]; x1 = 0.1459) is reported as 1279 ± 7.8 m/s. It also gave a speed of sound ([2]; x1 = 0.2084) of 1296 ± 7.9 m/s, a speed of sound ([2]; x1 = 0.2864) of 1314 ± 8 m/s and a speed of sound ([2]; x1 = 0.3757) of 1335 ± 8.2 m/s. It also gave a speed of sound ([2]; x1 = 0.4796) of 1357 ± 8.3 m/s, a speed of sound ([2]; x1 = 0.6093) of 1381 ± 8.4 m/s and a speed of sound ([2]; x1 = 0.7791) of 1406 ± 8.6 m/s. For the same molecule, the speed of sound ([2]; x1 = 1) was 1432 ± 8.8 m/s, the mass density ([2]; x1 = 0.0418) was 793.4 ± 1.8 kg/m3 and the mass density ([2]; x1 = 0.0922) was 817.8 ± 1.9 kg/m3. It also gave a mass density ([2]; x1 = 0.1459) of 841.2 ± 1.9 kg/m3, a mass density ([2]; x1 = 0.2084) of 864.9 ± 2 kg/m3 and a mass density ([2]; x1 = 0.2864) of 889.8 ± 2.1 kg/m3. It also gave a mass density ([2]; x1 = 0.3757) of 913.6 ± 2.2 kg/m3, a mass density ([2]; x1 = 0.4796) of 936 ± 2.2 kg/m3 and a mass density ([2]; x1 = 0.6093) of 957.5 ± 2.3 kg/m3. For the same molecule, the mass density ([2]; x1 = 0.7791) was 978.6 ± 2.4 kg/m3 and the mass density ([2]; x1 = 1) was 1000.6 ± 2.5 kg/m3.
